Results published in patent US20220323356A1, “METAL (HYDR)OXIDE COMPOSITE COMPRISING POORLY SOLUBLE DRUG, METHOD FOR PREPARING SAME, AND PHARMACEUTICAL COMPOSITION COMPRISING SAME” (priority 2020, published 2022).

Columns and labels:
[1] = in vivo; cited from earlier work
[2] = In-vivo pharmacokinetic analysis of calcined metal (hydr)oxide-docetaxel compositions, single oral administration; conditions: rat, 40 mg/kg

**Q.** With CC(=O)O[C@@]12CO[C@@H]1C[C@H](O)[C@@]1(C)C(=O)[C@H](O)C3=C(C)[C@@H](OC(=O)[C@H](O)[C@@H](NC(=O)OC(C)(C)C)c4ccccc4)C[C@@](O)([C@@H](OC(=O)c4ccccc4)[C@H]21)C3(C)C [Docetaxel] as the compound, how does the “bioavailability (%)” value [1] read?
**A.** 8%

**Q.** And the AUC(0-t) [2]?
**A.** 47.5 ng·h/mL

**Q.** What about the Tmax [2] of the same compound?
**A.** 0.5 h

**Q.** And the half-life [2]?
**A.** 9.41 h

**Q.** What about the Cmax ([2]; Cmax, Docetaxel PO 40 mg/kg, rats) of the same compound?
**A.** 5.25 ng/mL
